Activity calls are given as the source filed them.

IC50, EC50 and AC50 data for five compounds are collected here from ChEMBL document CHEMBL1201862, “PubChem BioAssay data set” (2004).

The target of one assay is T1, Exodeoxyribonuclease V (Escherichia coli (strain K12), UniProt P04993+P07648+P08394).
T1 sequence (P04993 whole entry): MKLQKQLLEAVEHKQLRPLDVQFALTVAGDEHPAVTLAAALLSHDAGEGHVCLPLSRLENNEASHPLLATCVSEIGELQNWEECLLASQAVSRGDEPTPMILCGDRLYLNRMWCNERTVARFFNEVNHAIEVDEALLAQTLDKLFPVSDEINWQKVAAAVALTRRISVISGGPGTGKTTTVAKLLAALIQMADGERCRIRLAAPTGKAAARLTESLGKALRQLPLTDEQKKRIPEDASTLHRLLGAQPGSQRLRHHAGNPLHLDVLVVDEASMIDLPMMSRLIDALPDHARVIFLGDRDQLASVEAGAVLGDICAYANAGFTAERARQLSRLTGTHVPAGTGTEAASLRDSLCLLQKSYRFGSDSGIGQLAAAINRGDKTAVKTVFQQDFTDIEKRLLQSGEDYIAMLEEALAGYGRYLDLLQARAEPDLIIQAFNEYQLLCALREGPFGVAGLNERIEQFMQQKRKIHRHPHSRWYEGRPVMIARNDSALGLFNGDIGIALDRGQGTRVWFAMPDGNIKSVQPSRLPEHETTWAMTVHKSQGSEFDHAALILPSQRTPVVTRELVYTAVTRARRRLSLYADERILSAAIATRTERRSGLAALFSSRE
T1 sequence (P07648 whole entry): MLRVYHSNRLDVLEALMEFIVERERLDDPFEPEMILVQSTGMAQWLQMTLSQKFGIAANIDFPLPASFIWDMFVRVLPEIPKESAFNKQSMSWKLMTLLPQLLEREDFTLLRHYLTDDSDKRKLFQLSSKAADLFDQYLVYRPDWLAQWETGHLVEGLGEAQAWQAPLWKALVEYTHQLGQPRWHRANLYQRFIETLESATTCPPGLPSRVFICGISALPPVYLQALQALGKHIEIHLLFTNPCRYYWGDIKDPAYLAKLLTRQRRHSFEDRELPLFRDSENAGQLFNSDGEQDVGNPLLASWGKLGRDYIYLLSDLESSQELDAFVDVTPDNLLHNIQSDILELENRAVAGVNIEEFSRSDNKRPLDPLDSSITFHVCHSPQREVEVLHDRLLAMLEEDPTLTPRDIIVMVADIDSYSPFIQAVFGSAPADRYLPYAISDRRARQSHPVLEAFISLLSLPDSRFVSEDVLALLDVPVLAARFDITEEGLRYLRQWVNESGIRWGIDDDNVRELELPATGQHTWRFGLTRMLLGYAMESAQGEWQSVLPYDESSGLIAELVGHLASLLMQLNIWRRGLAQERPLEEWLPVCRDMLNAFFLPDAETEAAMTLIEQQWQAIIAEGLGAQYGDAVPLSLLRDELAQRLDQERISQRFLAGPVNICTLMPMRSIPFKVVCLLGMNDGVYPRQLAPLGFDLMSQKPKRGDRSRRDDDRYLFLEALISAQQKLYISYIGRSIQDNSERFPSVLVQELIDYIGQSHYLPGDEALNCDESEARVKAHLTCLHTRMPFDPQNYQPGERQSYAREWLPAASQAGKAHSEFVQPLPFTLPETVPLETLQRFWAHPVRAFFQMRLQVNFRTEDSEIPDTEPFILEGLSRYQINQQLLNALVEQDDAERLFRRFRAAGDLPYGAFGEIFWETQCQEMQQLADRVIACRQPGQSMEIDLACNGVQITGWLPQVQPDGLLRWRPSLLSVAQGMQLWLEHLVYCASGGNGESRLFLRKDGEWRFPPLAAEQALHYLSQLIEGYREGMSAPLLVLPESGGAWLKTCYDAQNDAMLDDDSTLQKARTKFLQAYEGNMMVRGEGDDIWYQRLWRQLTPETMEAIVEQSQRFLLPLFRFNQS
T1 sequence (P08394 whole entry): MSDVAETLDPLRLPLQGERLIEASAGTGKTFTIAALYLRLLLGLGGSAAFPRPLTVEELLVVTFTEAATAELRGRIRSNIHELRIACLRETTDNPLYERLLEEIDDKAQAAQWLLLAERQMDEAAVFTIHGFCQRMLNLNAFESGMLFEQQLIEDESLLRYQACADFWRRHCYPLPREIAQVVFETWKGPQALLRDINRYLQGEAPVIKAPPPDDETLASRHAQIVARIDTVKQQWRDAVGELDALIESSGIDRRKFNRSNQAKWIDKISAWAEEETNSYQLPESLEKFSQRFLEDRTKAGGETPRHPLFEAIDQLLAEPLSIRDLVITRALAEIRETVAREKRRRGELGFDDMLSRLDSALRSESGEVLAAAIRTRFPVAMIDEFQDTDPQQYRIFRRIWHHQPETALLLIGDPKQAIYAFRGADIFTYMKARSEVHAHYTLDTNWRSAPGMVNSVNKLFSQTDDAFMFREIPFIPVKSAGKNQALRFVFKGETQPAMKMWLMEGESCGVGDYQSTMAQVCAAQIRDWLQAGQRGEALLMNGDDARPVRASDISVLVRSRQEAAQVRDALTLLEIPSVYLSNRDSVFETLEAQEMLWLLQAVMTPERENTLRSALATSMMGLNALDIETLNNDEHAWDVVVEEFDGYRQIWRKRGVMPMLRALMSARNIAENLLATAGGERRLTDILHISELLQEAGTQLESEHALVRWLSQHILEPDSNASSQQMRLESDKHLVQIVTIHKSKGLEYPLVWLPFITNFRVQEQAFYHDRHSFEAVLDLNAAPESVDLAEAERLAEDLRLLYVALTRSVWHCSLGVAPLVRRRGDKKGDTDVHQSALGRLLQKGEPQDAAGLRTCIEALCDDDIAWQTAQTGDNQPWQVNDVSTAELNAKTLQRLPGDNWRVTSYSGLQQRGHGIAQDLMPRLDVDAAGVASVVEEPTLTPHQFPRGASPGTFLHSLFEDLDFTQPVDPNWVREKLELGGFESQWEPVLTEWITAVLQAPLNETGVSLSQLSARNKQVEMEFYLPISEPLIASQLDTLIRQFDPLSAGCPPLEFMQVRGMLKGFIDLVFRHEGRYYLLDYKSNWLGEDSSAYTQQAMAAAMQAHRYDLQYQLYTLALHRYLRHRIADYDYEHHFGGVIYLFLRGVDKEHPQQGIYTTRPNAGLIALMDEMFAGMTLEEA
In words: RecBCD inhibition via phage-restricted bacterial growth – absorbance, V66 E. coli, mutant T4 phage, counter-screen for AddAB inhibitor project, dose response (AID 492957). It counts as functional, cell-based, Escherichia coli str. K-12 substr. MG1655. Background: A counterscreen serves to expose hits that act by an unwanted route or on another target.

Assay [1] can be described thus: Counterscreen for AddAB inhibitors: absorbance-based bacterial cell-based high throughput dose response assay for inhibitors of bacterial viability. [Related pubchem assays (depositor defined):AID435030, AID449728, AID449731, AID488942, AID488955, AID488956]. It counts as functional.
Assay [2] has as its target T2, Short transient receptor potential channel 4 (Mus musculus, UniProt Q9QUQ5).
T2 sequence (Q9QUQ5 whole entry): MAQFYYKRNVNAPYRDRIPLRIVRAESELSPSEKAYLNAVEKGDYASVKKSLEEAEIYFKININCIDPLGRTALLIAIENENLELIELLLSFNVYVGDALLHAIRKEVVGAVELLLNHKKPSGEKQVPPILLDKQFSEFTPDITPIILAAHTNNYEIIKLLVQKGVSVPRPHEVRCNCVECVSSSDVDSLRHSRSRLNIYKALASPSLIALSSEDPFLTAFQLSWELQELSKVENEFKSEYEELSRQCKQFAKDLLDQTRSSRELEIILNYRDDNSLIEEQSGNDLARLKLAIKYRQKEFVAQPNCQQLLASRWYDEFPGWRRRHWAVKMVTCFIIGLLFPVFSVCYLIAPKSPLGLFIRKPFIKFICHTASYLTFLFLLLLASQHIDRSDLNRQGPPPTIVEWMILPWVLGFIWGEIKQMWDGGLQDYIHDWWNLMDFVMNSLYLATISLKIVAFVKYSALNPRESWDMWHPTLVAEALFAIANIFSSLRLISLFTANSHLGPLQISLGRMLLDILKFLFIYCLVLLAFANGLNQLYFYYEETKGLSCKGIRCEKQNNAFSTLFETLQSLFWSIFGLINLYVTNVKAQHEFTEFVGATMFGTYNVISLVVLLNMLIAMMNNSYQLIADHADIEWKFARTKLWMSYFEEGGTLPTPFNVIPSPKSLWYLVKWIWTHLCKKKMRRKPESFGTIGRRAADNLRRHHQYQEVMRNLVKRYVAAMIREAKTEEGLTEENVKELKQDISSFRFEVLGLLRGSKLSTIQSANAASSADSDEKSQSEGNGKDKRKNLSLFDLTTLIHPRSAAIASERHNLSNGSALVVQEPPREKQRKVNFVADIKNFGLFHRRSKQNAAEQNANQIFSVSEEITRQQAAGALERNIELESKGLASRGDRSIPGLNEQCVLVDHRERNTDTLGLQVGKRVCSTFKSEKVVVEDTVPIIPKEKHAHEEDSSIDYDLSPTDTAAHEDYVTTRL
Nature of the assay: calcium entry via TRPC4 opening agents – cell-based, HEK293 TRPC4/mu-opioid, Fluo-4 calcium, dose response (AID 434937). The class given is functional.

Assay [3] has as its target DNA dC->dU-editing enzyme APOBEC-3A (Homo sapiens, UniProt P31941). Nature of the assay: Dose Response confirmation of small molecule APOBEC3A DNA Deaminase Inhibitors via a fluorescence-based single-stranded DNA deaminase assay. [Related pubchem assays (depositor defined):AID493011, AID493024]. It counts as functional.
Assay [4] concerns the target DNA dC->dU-editing enzyme APOBEC-3G (Homo sapiens, UniProt Q9HC16). The class given is functional.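 Also: Dose-response counterscreen measuring inhibition of APOBEC3G DNA deaminase activity, run while confirming APOBEC3A inhibitors.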
The next assay deals with T3, Protein skinhead-1 (Caenorhabditis elegans, UniProt P34707).
T3 sequence (P34707 whole entry): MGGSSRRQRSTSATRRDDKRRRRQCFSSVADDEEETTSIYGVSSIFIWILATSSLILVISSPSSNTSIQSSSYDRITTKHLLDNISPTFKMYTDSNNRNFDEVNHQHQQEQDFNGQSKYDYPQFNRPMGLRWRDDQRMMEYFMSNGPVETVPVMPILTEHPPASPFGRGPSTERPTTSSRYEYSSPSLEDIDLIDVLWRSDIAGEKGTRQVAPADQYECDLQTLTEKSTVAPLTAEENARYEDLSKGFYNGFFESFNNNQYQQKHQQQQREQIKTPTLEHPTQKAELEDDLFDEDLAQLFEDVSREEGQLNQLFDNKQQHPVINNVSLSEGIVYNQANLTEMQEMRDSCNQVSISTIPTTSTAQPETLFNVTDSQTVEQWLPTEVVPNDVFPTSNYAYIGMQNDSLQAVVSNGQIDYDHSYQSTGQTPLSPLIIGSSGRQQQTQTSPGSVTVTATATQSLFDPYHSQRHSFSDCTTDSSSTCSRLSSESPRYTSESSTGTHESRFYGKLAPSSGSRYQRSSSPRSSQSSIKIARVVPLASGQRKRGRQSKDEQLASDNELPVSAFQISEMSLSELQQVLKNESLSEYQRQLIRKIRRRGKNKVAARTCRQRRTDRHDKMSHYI
It counts as functional.

The target of a further assay is Troponin, cardiac muscle (Homo sapiens, UniProt P19429+P45379+P63316). Nature of the assay: Fluorescence-based biochemical high throughput dose response assay for activators of the calcium sensitivity of cardiac Regulated Thin Filaments (RTF). [Related pubchem assays (depositor defined):AID493008, AID493018, AID504382, AID504383]. The class given is protein-complex assay.

Another assay deals with INS1. Nature of the assay: INS-1E survival protection against cytokine death – cell-based, luminescence, retest, dose response (AID 449756).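 Also: cell death triggered by IL-1 beta plus TNF-alpha plus IFN-gamma mixture; protective hits raise ATP signal compared with cytokine alone wells.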 It counts as functional. As to conditions: Rattus norvegicus.
The target of assay [5] is T4, Corticotropin-releasing factor receptor 2/Corticotropin-releasing factor-binding protein (Homo sapiens, UniProt P24387+Q13324).
T4 sequence (Q13324 whole entry): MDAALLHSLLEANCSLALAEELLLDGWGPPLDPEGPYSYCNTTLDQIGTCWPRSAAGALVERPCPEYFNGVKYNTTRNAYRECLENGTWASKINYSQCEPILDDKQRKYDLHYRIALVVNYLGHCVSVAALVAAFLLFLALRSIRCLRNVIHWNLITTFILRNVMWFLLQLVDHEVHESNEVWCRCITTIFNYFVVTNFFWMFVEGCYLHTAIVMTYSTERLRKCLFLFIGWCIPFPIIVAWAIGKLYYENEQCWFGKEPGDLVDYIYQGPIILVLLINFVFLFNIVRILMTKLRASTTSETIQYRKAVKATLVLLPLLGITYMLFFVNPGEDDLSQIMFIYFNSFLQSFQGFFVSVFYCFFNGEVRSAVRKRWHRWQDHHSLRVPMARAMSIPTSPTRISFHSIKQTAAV
T4 sequence (P24387 whole entry): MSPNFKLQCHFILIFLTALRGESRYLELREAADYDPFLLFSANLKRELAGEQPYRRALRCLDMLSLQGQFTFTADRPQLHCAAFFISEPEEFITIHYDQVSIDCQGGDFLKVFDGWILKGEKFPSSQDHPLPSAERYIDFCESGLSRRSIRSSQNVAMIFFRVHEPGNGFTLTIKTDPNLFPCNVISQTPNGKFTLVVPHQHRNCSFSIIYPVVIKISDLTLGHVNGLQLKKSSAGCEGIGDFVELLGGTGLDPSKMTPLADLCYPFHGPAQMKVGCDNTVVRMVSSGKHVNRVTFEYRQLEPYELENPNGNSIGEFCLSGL
Nature of the assay: activators of CRF receptor 2 with binding protein – uHTS hits, confirmation (AID 602473). The class given is functional. The conditions noted are these: read-out: EC50_Mean.

Chain of DNA dC->dU-editing enzyme APOBEC-3A (P31941 whole entry): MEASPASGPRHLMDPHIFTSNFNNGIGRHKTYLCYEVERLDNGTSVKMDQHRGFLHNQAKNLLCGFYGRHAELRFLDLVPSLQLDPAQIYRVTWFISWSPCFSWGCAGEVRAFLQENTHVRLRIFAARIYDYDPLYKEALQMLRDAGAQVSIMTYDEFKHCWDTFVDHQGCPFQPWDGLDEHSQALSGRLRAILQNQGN
Chain of DNA dC->dU-editing enzyme APOBEC-3G (Q9HC16 whole entry): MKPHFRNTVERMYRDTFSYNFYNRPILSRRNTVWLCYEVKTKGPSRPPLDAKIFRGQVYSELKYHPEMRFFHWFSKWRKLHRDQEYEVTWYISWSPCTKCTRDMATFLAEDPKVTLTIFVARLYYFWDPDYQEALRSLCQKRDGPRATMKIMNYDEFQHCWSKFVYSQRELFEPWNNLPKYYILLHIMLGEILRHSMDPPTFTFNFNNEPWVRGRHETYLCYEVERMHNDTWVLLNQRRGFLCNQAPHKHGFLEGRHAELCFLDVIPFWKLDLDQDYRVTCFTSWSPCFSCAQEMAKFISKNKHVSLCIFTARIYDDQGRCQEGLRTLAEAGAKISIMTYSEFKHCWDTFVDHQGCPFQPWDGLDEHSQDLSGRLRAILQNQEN

Consider `COc1ccc(-c2cc(N3CCCC3)n3ncnc3n2)cc1`, for which the IC50 (at Exodeoxyribonuclease V; in assay [1]) was > 119 µM (inactive) in each case.

As to `CCc1n[nH]c(CCN)n1`, the EC50 in [2] is 3.76 µM (active).

`COC(=O)C1=C(C)N(Cc2ccccc2)C(NCCc2ccccn2)=N[C@H]1c1cccc(F)c1`: the IC50 in [3] was 2.67 µM (active); in assay [4], 4.79 µM (active); at Protein skinhead-1 it was > 100 µM (inactive). Besides, the EC50 in [2] is 5.96 µM (active).

Consider `CC1(C)CCN2CCC(C)(C)c3c(O)ccc1c32`, for which the EC50 on Troponin, cardiac muscle was 3.33 µM (active). Besides, the AC50 with INS1 was 7.71 µM (active).

Turning to `Cc1ccc(N2C(=O)C3C(C(=O)c4ccccc4)=NN(c4ccccc4)C3C2=O)cc1` (stereo unspecified), the EC50 in assay [5] was 22.2 µM (active); on Troponin, cardiac muscle, 17.9 µM (inactive).

As usually defined, the IC50 is the concentration at which inhibition is half-maximal. Usually AC50 stands for the midpoint of the concentration-response curve, whichever way the signal moves.
